Test results: the NIST ThermoML archive (doi:10.1016/j.jct.2017.03.026)
“And” between values parts separate entries of the source, which are not always exact repeats. Equal values may be shown once.

Assay: molar heat capacity at constant pressure
Settings: 101.33 kPa, Crystal, Small (less than 1 g) adiabatic calorimetry

O.O.O.O.O.O=S(=O)([O-])[O-].[Cu+2] [copper(II) sulfate pentahydrate]
Settings | molar heat capacity at constant pressure
263.9 K | 273.18 J/K/mol
263.97 K | 273.31 J/K/mol
264.29 K | 274.33 J/K/mol
264.46 K | 276.88 J/K/mol
264.57 K | 275.1 J/K/mol
264.65 K | 275.18 J/K/mol
264.69 K | 262.84 J/K/mol
264.78 K | 276.45 J/K/mol
264.88 K | 264.12 J/K/mol
264.96 K | 275.1 J/K/mol
265.24 K | 276.28 J/K/mol
265.28 K | 276.6 J/K/mol
265.59 K | 277.08 J/K/mol
265.9 K | 279.45 J/K/mol
265.91 K | 277.83 J/K/mol and 277.48 J/K/mol
266.22 K | 277.65 J/K/mol
266.54 K | 279.67 J/K/mol
266.57 K | 280.8 J/K/mol
266.85 K | 280.57 J/K/mol
267.02 K | 283.47 J/K/mol
267.12 K | 265.84 J/K/mol
267.16 K | 281.25 J/K/mol
267.24 K | 282.99 J/K/mol
267.47 K | 265.72 J/K/mol
267.48 K | 282.69 J/K/mol
267.49 K | 288.14 J/K/mol
267.79 K | 284.49 J/K/mol
267.89 K | 286.74 J/K/mol
268.1 K | 286.29 J/K/mol
268.14 K | 289.09 J/K/mol
268.41 K | 287.96 J/K/mol
268.56 K | 290.56 J/K/mol
268.72 K | 290.51 J/K/mol
269.03 K | 293.88 J/K/mol
269.21 K | 298.25 J/K/mol
269.26 K | 299.3 J/K/mol
269.34 K | 297.25 J/K/mol
269.69 K | 302.97 J/K/mol
269.86 K | 308.74 J/K/mol
270 K | 267.7 J/K/mol and 309.44 J/K/mol
270.26 K | 267.96 J/K/mol
270.3 K | 319.67 J/K/mol
270.38 K | 339.72 J/K/mol and 332.91 J/K/mol
270.48 K | 333.13 J/K/mol
270.59 K | 334.95 J/K/mol
270.88 K | 351.88 J/K/mol
271.09 K | 383.64 J/K/mol
271.16 K | 376.43 J/K/mol
271.44 K | 383.42 J/K/mol
271.46 K | 344.42 J/K/mol
271.62 K | 269.24 J/K/mol
271.71 K | 298.82 J/K/mol
271.74 K | 277.83 J/K/mol
272.06 K | 278.7 J/K/mol
272.36 K | 280.4 J/K/mol
272.37 K | 278.52 J/K/mol
272.63 K | 281.05 J/K/mol
272.69 K | 278.7 J/K/mol
273.01 K | 279.65 J/K/mol
273.04 K | 280.4 J/K/mol
273.15 K | 269.83 J/K/mol and 270.1 J/K/mol
273.27 K | 284.34 J/K/mol
273.33 K | 280.47 J/K/mol
273.64 K | 279.37 J/K/mol
273.74 K | 281.2 J/K/mol
273.8 K | 282.84 J/K/mol
273.88 K | 270.91 J/K/mol
273.96 K | 280.1 J/K/mol
274.28 K | 278.85 J/K/mol
274.4 K | 281.05 J/K/mol
274.64 K | 282.74 J/K/mol
274.93 K | 283.52 J/K/mol
274.96 K | 280.85 J/K/mol
275.07 K | 282.49 J/K/mol
275.27 K | 285.02 J/K/mol
275.6 K | 285.39 J/K/mol
275.73 K | 282.32 J/K/mol
275.91 K | 281.82 J/K/mol
275.93 K | 272.18 J/K/mol
276.06 K | 284.92 J/K/mol
276.14 K | 271.78 J/K/mol
276.23 K | 282.52 J/K/mol
276.26 K | 287.86 J/K/mol
276.39 K | 283.24 J/K/mol
276.54 K | 281.92 J/K/mol
276.86 K | 283.12 J/K/mol
277.05 K | 284.94 J/K/mol
277.17 K | 283.69 J/K/mol
277.18 K | 287.21 J/K/mol
277.48 K | 283.57 J/K/mol
277.71 K | 285.67 J/K/mol
277.8 K | 284.34 J/K/mol
278.11 K | 284.89 J/K/mol
278.31 K | 288.04 J/K/mol
278.37 K | 287.66 J/K/mol
278.38 K | 274.55 J/K/mol
278.43 K | 285.39 J/K/mol
278.71 K | 274.33 J/K/mol
278.74 K | 285.79 J/K/mol
279.05 K | 283.84 J/K/mol
279.06 K | 284.24 J/K/mol
279.23 K | 285.22 J/K/mol
279.37 K | 283.12 J/K/mol
279.45 K | 283.07 J/K/mol
279.71 K | 282.87 J/K/mol
279.74 K | 283.84 J/K/mol
280 K | 275.2 J/K/mol
280.05 K | 283.69 J/K/mol
280.37 K | 283.64 J/K/mol
280.38 K | 282.97 J/K/mol
280.57 K | 284.27 J/K/mol
280.66 K | 275.03 J/K/mol
280.69 K | 284.49 J/K/mol
281.02 K | 283.67 J/K/mol
281.05 K | 283.87 J/K/mol
281.33 K | 283.77 J/K/mol
281.48 K | 276.46 J/K/mol
281.65 K | 284.82 J/K/mol
281.7 K | 285.57 J/K/mol
281.71 K | 285.19 J/K/mol
281.97 K | 283.94 J/K/mol
282.27 K | 286.17 J/K/mol
282.29 K | 285.04 J/K/mol
282.39 K | 285.19 J/K/mol
282.6 K | 284.74 J/K/mol
282.84 K | 286.54 J/K/mol
282.91 K | 276.63 J/K/mol
282.92 K | 285.39 J/K/mol
283.05 K | 284.89 J/K/mol
283.24 K | 285.54 J/K/mol
283.56 K | 286.89 J/K/mol
283.72 K | 285.69 J/K/mol
283.88 K | 287.24 J/K/mol
283.97 K | 287.54 J/K/mol
284.2 K | 286.71 J/K/mol
284.24 K | 278.43 J/K/mol
284.43 K | 286.89 J/K/mol
284.52 K | 286.41 J/K/mol
284.89 K | 287.61 J/K/mol
285.09 K | 286.69 J/K/mol
285.11 K | 288.04 J/K/mol
285.16 K | 279.3 J/K/mol
285.21 K | 287.79 J/K/mol
285.23 K | 288.34 J/K/mol
285.54 K | 287.61 J/K/mol
285.76 K | 287.46 J/K/mol
285.86 K | 289.01 J/K/mol
286.18 K | 287.86 J/K/mol
286.25 K | 289.39 J/K/mol
286.42 K | 287.76 J/K/mol
286.51 K | 286.29 J/K/mol
286.83 K | 288.26 J/K/mol
287 K | 280.48 J/K/mol
287.09 K | 288.31 J/K/mol
287.16 K | 288.41 J/K/mol
287.4 K | 289.81 J/K/mol
287.46 K | 280.82 J/K/mol
287.49 K | 289.64 J/K/mol
